# Laboratory results as given in patent US20200347039A1, “CRYSTAL FORM OF RENAL OUTER MEDULLARY POTASSIUM CHANNEL INHIBITOR AND PREPARATION METHOD THEREOF” (JIANGSU HENGRUI MEDICINE CO., LTD., priority 2017, published 2020).
# Assay: Pharmacokinetic experiment in SD rats after gavage (LC/MS/MS plasma concentration)
# Assay type: in vivo
# Settings: for AUClast: SD rat experiment (5 mg/kg)
# [1] = SD rats, po 5.0 mg/kg, suspension in 0.5% CMC-Na
# [2] = both sexes, rat, plasma, SD rats, po 5.0 mg/kg, suspension in 0.5% CMC-Na
AUClast [ng·h/mL],T1/2 [1] [h],Vz/F_obs [1] [L/kg],AUC(0-t) [2] [ng·h/mL],CL/F [2] [mL/min/kg],half-life [2] [h],"Vd/F (both sexes, rat, plasma, SD rats, po 5.0 mg/kg, suspension in 0.5% CMC-Na, read-out: Vz/F_obs) [L/kg]",Structure (SMILES)
9283,3.62,3.019,9280,,,,COc1cc(C(=O)NC2CCN(C[C@H](O)c3ccc4c(c3C)COC4=O)CC2)ncc1C#N [free state]
12618,,,12600,6.7,4.21,2.45,"COc1cc(C(=O)NC2CCN(C[C@H](O)c3ccc4c(c3C)COC4=O)CC2)ncc1C#N.O=C(O)C(O)C(O)C(=O)O [Crystal form III, (R)-5-cyano-N-(1-(2-hydroxy-2-(4-methyl-1-carbonyl-1,3-dihydroisobenzofuran-5-yl)ethyl)piperidin-4-yl)-4-methoxypyridinecarboxamide tartrate]"
